Reference: patent publication US11541067B2, “HMO compositions and methods for reducing detrimental proteolytic metabolites” (Glycom A/S, priority 2017, dated 2023)

Test system: microbial metabolites
Experiment: M-SHIME (M-TripleSHIME) in vitro gastrointestinal model: bacterial metabolite analysis
Format: cell-based, human
Conditions: proximal (PC) and distal (DC) colon reactor; FIG. 1 in mg/l, means of three weekly samples
Excerpt: The impact of the HMOs on microbiota and bacterial metabolites was investigated in the M-SHIME® (M-TripleSHlME®) in vitro gastrointestinal model (Prodigest). The typical reactor setup of the M-TripleSHIME® consisted of a succession of four reactors simulating the different parts of the human gastrointestinal tract. The first two reactors were of the fill-and-draw principle to simulate different steps in food uptake and digestion, with peristaltic pumps adding a defined amount of SHIME feed (140 mL 3×/day) and pancreatic and bile liquid (60 ml 3×/day), respectively, to the stomach and small intestine compartment and emptying the respective reactors after specified intervals. The last two compartments were continuously stirred reactors with constant volume and pH control. […]
The M-TripleSHIME® was run in four stages: • 1. […] The baseline microbial community composition and activity in the different reactors was determined by analysis of samples and was used as a reference. • 3. […]
Sample of the liquids in each reactor were collected regularly (three times in a week, on day 1, day 3 and day 5) and were analysed for microbial metabolites and the composition of the resident microbial community. In particular, the bifidobacteria composition was analysed using ITS profiling.

Structure (SMILES): CC(=O)N[C@H]1[C@H](O[C@H]2[C@@H](O)[C@@H](CO)O[C@@H](O[C@H]3[C@H](O)[C@@H](O)C(O)O[C@@H]3CO)[C@@H]2O)O[C@H](CO)[C@@H](O[C@@H]2O[C@H](CO)[C@H](O)[C@H](O)[C@H]2O)[C@@H]1O (mixture of isomers) [LNnT, lacto-N-neotetraose]
- ammonia production compared with the effect of 2′-FL (FIG. 1): similar
- branched SOFA production compared with the effect of 2′-FL (FIG. 1): similar
